Data as given in ChEMBL document CHEMBL3045245, “Synthesis and antitumor activities of certain novel 2-amino-9-(4-halostyryl)-4H-pyrano[3,2-h]quinoline derivatives” (Med Chem Res, 2012).
≈ marks a conversion by molar mass, not a printed value.

Key:
MCF7 [1] = assay: Cytotoxicity against Homo sapiens (human) MCF7 cells assessed as cell viability at 25 ug/ml after 48 hr by MTT assay; format: functional; settings: MCF7, 48 h, read-out: Activity
[2] = Cytotoxicity against Homo sapiens (human) HCT cells assessed as cell viability at 12.5 ug/ml after 48 hr by MTT assay; format: functional; settings: read-out: Activity
HepG2 [3] = assay: Cytotoxicity against Homo sapiens (human) HepG2 cells assessed as cell viability at 3.125 ug/ml after 48 hr by MTT assay; format: functional; settings: HepG2, 48 h, read-out: Activity
MCF7 [4] = assay: Cytotoxicity against Homo sapiens (human) MCF7 cells assessed as cell viability at 3.125 ug/ml after 48 hr by MTT assay; format: functional; settings: MCF7, 48 h, read-out: Activity
[5] = Cytotoxicity against Homo sapiens (human) HCT cells assessed as cell viability at 50 ug/ml after 48 hr by MTT assay; format: functional; settings: read-out: Activity
HepG2 [6] = assay: Cytotoxicity against Homo sapiens (human) HepG2 cells assessed as cell viability at 25 ug/ml after 48 hr by MTT assay; format: functional; settings: HepG2, 48 h, read-out: Activity
MCF7 [7] = assay: Cytotoxicity against Homo sapiens (human) MCF7 cells assessed as cell viability at 12.5 ug/ml after 48 hr by MTT assay; format: functional; settings: MCF7, 48 h, read-out: Activity
HepG2 [8] = assay: Cytotoxicity against Homo sapiens (human) HepG2 cells after 48 hr by MTT assay; format: functional, cell-based; settings: HepG2, 48 h
MCF7 [9] = assay: Cytotoxicity against Homo sapiens (human) MCF7 cells assessed as cell viability at 6.25 ug/ml after 48 hr by MTT assay; format: functional; settings: MCF7, 48 h, read-out: Activity
MCF7 [10] = assay: Cytotoxicity against Homo sapiens (human) MCF7 cells assessed as cell viability at 1.56 ug/ml after 48 hr by MTT assay; format: functional; settings: MCF7, 48 h, read-out: Activity
[11] = Cytotoxicity against Homo sapiens (human) HCT cells assessed as cell viability at 1.56 ug/ml after 48 hr by MTT assay; format: functional; settings: read-out: Activity
MCF7 [12] = assay: Cytotoxicity against Homo sapiens (human) MCF7 cells after 48 hr by MTT assay; format: functional, cell-based; settings: MCF7, 48 h
[13] = Cytotoxicity against Homo sapiens (human) HCT cells after 48 hr by MTT assay; format: functional, cell-based
HepG2 [14] = assay: Cytotoxicity against Homo sapiens (human) HepG2 cells assessed as cell viability at 1.56 ug/ml after 48 hr by MTT assay; format: functional; settings: HepG2, 48 h, read-out: Activity
[15] = Cytotoxicity against Homo sapiens (human) HCT cells assessed as cell viability at 6.25 ug/ml after 48 hr by MTT assay; format: functional; settings: read-out: Activity
MCF7 [16] = assay: Cytotoxicity against Homo sapiens (human) MCF7 cells assessed as cell viability at 50 ug/ml after 48 hr by MTT assay; format: functional; settings: MCF7, 48 h, read-out: Activity
HepG2 [17] = assay: Cytotoxicity against Homo sapiens (human) HepG2 cells assessed as cell viability at 6.25 ug/ml after 48 hr by MTT assay; format: functional; settings: HepG2, 48 h, read-out: Activity
HepG2 [18] = assay: Cytotoxicity against Homo sapiens (human) HepG2 cells assessed as cell viability at 12.5 ug/ml after 48 hr by MTT assay; format: functional; settings: HepG2, 48 h, read-out: Activity
HepG2 [19] = assay: Cytotoxicity against Homo sapiens (human) HepG2 cells assessed as cell viability at 50 ug/ml after 48 hr by MTT assay; format: functional; settings: HepG2, 48 h, read-out: Activity
[20] = Cytotoxicity against Homo sapiens (human) HCT cells assessed as cell viability at 3.125 ug/ml after 48 hr by MTT assay; format: functional; settings: read-out: Activity
[21] = Cytotoxicity against Homo sapiens (human) HCT cells assessed as cell viability at 25 ug/ml after 48 hr by MTT assay; format: functional; settings: read-out: Activity

SMILES	viability at 25 µg/mL (MCF7 [1]) [%]	viability at 12.5 µg/mL [2] [%]	viability at 3.125 µg/mL (HepG2 [3]) [%]	viability at 3.125 µg/mL (MCF7 [4]) [%]	viability at 50 µg/mL [5] [%]	viability at 25 µg/mL (HepG2 [6]) [%]	viability at 12.5 µg/mL (MCF7 [7]) [%]	IC50 (HepG2 [8]) [µg/mL]	viability at 6.25 µg/mL (MCF7 [9]) [%]	viability at 1.56 µg/mL (MCF7 [10]) [%]	viability at 1.56 µg/mL [11] [%]	IC50 (MCF7 [12]) [µg/mL]	IC50 [13] [µg/mL]	viability at 1.56 µg/mL (HepG2 [14]) [%]	viability at 6.25 µg/mL [15] [%]	viability at 50 µg/mL (MCF7 [16]) [%]	viability at 6.25 µg/mL (HepG2 [17]) [%]	viability at 12.5 µg/mL (HepG2 [18]) [%]	viability at 50 µg/mL (HepG2 [19]) [%]	viability at 3.125 µg/mL [20] [%]	other results
N#CC1=C(N)Oc2c(ccc3ccc(/C=C/c4ccc(Br)cc4)nc23)C1c1ccc(Cl)cc1 (centres undefined)	41.2	41.9	64.4	73	22.8	29	53.1	7.5 (≈ 14.6 µM)	64.7	80.6	98	15.9 (≈ 30.9 µM)	10.2 (≈ 19.8 µM)	77.9	74.9	29.4	53.1	39.4	25.2	89.8	viability at 25 µg/mL [21]: 30.3%
CCOC(=O)C1=C(N)Oc2c(ccc3ccc(/C=C/c4ccc(Br)cc4)nc23)C1c1ccc(Cl)cc1 (centres undefined)	31	34.4	49.6	57.9	17.6	22.9	41.6	3.1 (≈ 5.52 µM)	45.5	69.4	72.1	5.4 (≈ 9.61 µM)	6.1 (≈ 10.9 µM)	72.1	48.1	25.6	39.3	36.4	14.6	66.2	viability at 25 µg/mL [21]: 24.7%
CCOC(=O)C1=C(N)Oc2c(ccc3ccc(/C=C/c4ccc(Br)cc4)nc23)C1c1ccc(Br)cc1 (centres undefined)	17.9	52.2	61	45.5	26	36.1	23.8	6.1 (≈ 10.1 µM)	31.6	62.3	86	2.4 (≈ 3.96 µM)	12.8 (≈ 21.1 µM)	79.6	62.8	13	48.6	42.2	23.4	76.6	viability at 25 µg/mL [21]: 31.4%
CC[C@]1(O)C[C@@H]2CN(CCc3c([nH]c4ccccc34)[C@@](C(=O)OC)(c3cc4c(cc3OC)N(C)[C@H]3[C@@](O)(C(=O)OC)[C@H](OC(C)=O)[C@]5(CC)C=CCN6CC[C@]43[C@@H]65)C2)C1 [VINBLASTINE]	15.2	28.2	55	60.4	16.3	16.1	29.6	4.6 (≈ 5.67 µM)	48.8	76.2	53.4	6.1 (≈ 7.52 µM)	2.6 (≈ 3.21 µM)	72.1	38.1	7.82	45.1	24.2	14.4	47.5	viability at 25 µg/mL [21]: 21.7%
